ChEMBL document CHEMBL1201862, “PubChem BioAssay data set” (2004)
Active and inactive are the calls of the source.

Tests used:
[1] = molecular target: T1, Neuropeptide Y receptor type 2 (Homo sapiens, UniProt P49146); type: functional, cell-based;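 also: HEK293 cells expressing the receptor and a CNG channel; stimulus was NPY near EC95 followed by isoproterenol to raise cAMP; antagonist potency measured as restoring cAMP signal that NPY suppresses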
T1 sequence (P49146 whole entry): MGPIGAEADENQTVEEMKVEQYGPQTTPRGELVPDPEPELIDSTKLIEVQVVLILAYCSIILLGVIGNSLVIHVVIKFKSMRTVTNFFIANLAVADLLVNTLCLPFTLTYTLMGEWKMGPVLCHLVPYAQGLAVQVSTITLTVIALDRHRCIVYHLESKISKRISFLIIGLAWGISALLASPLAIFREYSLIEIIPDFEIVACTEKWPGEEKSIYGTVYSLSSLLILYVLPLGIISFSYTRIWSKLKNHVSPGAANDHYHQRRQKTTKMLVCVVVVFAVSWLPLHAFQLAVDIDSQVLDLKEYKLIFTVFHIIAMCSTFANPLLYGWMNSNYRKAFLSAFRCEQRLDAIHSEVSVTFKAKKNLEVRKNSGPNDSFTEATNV

[2] = molecular target: T2, Neuropeptide Y receptor type 1 (Homo sapiens, UniProt P25929); type: functional;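 also: HEK293 cells with a CNG channel challenged with NPY then isoproterenol; potency as antagonist that reverses NPY suppression of cAMP signal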
T2 sequence (P25929 whole entry): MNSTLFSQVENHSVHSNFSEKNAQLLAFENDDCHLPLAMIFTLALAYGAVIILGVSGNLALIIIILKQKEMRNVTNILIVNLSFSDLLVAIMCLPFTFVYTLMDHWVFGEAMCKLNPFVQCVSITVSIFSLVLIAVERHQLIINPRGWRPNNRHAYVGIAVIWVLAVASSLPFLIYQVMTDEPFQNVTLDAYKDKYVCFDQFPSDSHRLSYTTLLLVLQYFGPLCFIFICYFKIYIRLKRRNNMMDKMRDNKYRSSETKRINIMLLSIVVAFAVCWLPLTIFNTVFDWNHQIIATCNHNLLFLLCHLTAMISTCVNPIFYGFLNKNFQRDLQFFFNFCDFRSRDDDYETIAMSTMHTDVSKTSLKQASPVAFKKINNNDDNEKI

[3] = molecular target: T3, Short transient receptor potential channel 4 (Mus musculus, UniProt Q9QUQ5); assay: calcium entry via TRPC4 opening agents – cell-based, HEK293 TRPC4/mu-opioid, Fluo-4 calcium, dose response (AID 434937); type: functional
T3 sequence (Q9QUQ5 whole entry): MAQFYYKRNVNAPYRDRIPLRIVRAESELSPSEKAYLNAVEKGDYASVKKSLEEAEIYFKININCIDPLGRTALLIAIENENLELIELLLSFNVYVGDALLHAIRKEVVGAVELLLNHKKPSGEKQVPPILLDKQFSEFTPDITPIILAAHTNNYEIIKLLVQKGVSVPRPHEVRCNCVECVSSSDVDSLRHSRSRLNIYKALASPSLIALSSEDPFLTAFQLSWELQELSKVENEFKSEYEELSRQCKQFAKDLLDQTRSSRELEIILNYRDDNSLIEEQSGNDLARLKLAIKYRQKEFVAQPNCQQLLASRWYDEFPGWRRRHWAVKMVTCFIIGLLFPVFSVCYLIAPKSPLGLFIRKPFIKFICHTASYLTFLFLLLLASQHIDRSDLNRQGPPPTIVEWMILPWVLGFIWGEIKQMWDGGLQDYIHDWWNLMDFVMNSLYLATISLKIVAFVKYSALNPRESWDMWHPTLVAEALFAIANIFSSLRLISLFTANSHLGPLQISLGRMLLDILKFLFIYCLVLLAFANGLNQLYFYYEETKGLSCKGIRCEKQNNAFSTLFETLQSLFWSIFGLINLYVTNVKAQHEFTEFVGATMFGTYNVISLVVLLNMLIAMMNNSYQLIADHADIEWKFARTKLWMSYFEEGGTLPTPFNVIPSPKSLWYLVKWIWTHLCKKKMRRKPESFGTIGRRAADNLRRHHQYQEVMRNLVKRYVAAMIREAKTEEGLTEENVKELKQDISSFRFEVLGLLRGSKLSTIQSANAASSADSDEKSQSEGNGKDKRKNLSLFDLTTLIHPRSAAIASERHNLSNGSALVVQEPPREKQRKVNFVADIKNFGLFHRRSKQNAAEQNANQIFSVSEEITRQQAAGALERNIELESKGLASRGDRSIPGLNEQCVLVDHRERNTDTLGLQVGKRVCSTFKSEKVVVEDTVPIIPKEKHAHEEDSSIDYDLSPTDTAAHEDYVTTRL

[4] = molecular target: Vasopressin V1a receptor (Homo sapiens, UniProt P37288); assay: Fluorescence-based cell-based high throughput dose response screening assay for agonists of the vasopressin 1 receptor (V1R).; type: functional
[5] = molecular target: Oxytocin receptor (Homo sapiens, UniProt P30559); assay: Counterscreen for vasopressin 1 receptor (V1R) agonists: Fluorescence-based cell-based high throughput dose response assay for agonists of the Oxytocin Receptor (OXTR). [Related pubchem assays: 2435 (Primary screen (OXTR agonists in singlicate)), 434964 (Confirmation screen (V1R agonists in triplicate)), 434969 (Counterscreen (OXTR agonists in …; type: functional
[6] = test system: Streptococcus; assay: GAS UMAA2166 growth inhibition – luminescence, BacTiterGlo, counter-screen for streptokinase expression inhibitor project, dose response (AID 1915); type: functional, organism-based;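 also: potency for reduction of bacterial viability or growth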
[7] = test system: Streptococcus sp. 'group A'; assay: Streptococcus pyogenes SK(-)GAS viability under kanamycin – luminescence, BacTiterGlo, confirmation, counter-screen for streptokinase expression inhibitor project, dose response (AID 1900); type: functional, organism-based
[8] = molecular target: Peroxisome proliferator-activated receptor gamma/Nuclear receptor coactivator 2 (Homo sapiens, UniProt P37231); type: functional;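 also: agonist potency for raising coactivator recruitment to the receptor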
[9] = molecular target: Peroxisome proliferator-activated receptor gamma/Nuclear receptor coactivator 3 (Homo sapiens, UniProt P37231); type: functional;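 also: agonist potency for raising coactivator recruitment to the receptor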
[10] = molecular target: Peroxisome proliferator-activated receptor gamma/Nuclear receptor coactivator 1 (Homo sapiens, UniProt P37231); type: functional;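 also: agonist potency as compounds enhance coactivator SRC-1 recruitment to PPARgamma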
[11] = molecular target: Estrogen receptor (Homo sapiens, UniProt P03372);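 also: potency for inhibiting coactivator peptide recruitment to the receptor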
[12] = molecular target: Estrogen receptor beta (Homo sapiens, UniProt Q92731);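 also: recombinant ER-beta bound to coactivator SRC1 peptide in presence of estradiol agonist; inhibitors block coactivator peptide binding and lower the FRET signal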
Estrogen receptor beta, sequence (Q92731 whole entry): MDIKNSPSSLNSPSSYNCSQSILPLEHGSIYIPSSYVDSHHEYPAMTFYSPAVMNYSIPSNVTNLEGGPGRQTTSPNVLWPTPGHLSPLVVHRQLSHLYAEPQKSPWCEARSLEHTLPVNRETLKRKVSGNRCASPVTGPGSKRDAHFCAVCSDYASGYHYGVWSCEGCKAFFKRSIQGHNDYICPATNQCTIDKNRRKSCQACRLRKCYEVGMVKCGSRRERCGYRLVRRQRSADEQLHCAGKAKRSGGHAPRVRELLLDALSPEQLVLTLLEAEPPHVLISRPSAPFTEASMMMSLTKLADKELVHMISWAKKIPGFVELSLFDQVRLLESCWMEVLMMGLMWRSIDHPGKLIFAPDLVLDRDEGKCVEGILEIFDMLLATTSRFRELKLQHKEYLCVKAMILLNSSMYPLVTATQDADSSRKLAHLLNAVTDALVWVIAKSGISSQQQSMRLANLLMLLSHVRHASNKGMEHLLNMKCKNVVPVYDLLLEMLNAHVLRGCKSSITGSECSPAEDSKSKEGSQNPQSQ

Peroxisome proliferator-activated receptor gamma/Nuclear receptor coactivator 3, sequence (P37231 whole entry): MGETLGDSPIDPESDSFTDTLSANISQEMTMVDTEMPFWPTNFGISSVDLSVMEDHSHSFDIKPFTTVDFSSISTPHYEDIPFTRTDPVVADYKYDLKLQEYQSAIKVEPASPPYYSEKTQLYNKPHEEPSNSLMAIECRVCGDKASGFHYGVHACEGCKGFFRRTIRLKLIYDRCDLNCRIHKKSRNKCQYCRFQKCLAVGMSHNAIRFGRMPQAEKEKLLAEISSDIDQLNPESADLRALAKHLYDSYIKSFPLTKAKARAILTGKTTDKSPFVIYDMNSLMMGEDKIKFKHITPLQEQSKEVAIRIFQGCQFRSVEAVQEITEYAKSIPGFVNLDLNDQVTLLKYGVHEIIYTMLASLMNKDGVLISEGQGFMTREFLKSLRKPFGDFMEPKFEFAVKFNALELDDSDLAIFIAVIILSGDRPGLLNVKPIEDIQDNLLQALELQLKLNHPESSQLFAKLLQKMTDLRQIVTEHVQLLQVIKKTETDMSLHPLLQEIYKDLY
Peroxisome proliferator-activated receptor gamma/Nuclear receptor coactivator 3, sequence (Q9Y6Q9 whole entry, further chain): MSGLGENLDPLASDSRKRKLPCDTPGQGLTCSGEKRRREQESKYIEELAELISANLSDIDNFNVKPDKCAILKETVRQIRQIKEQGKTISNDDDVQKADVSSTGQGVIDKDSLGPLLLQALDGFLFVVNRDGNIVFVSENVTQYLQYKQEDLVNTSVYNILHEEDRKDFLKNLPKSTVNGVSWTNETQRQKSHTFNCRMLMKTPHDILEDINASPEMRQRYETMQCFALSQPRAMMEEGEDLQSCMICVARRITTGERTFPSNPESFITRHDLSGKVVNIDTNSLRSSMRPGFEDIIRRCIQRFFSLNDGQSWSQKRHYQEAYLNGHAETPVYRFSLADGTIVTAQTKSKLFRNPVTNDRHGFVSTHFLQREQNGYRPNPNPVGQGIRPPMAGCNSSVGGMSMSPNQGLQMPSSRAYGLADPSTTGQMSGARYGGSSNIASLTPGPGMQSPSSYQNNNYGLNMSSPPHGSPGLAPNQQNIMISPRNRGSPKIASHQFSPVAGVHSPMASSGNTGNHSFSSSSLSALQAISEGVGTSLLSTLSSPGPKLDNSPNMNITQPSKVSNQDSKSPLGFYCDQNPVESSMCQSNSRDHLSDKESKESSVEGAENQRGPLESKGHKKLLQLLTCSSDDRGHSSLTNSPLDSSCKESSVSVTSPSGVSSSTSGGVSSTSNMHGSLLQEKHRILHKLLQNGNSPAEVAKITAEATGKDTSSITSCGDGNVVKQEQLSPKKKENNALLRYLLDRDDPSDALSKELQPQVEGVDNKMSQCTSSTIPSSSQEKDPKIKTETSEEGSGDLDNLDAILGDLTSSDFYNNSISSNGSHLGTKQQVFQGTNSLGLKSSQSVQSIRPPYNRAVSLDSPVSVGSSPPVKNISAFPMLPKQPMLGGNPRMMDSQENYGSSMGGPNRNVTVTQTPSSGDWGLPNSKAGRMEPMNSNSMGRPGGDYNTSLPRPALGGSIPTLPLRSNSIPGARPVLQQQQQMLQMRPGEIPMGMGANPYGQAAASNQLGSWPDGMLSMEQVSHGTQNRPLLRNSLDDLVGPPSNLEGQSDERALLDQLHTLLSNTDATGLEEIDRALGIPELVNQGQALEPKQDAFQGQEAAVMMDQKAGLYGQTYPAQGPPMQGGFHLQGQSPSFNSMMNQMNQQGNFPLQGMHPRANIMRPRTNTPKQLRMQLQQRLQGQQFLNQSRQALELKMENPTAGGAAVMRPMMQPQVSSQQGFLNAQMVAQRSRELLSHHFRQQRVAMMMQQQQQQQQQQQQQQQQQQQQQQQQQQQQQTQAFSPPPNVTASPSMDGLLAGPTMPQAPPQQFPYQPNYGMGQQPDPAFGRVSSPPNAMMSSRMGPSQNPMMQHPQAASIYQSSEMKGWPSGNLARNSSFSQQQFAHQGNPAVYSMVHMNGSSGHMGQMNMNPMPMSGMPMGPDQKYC
Peroxisome proliferator-activated receptor gamma/Nuclear receptor coactivator 1, sequence (P37231 whole entry): as the sequence (P37231 whole entry) above
Peroxisome proliferator-activated receptor gamma/Nuclear receptor coactivator 1, sequence (Q15788 whole entry, further chain): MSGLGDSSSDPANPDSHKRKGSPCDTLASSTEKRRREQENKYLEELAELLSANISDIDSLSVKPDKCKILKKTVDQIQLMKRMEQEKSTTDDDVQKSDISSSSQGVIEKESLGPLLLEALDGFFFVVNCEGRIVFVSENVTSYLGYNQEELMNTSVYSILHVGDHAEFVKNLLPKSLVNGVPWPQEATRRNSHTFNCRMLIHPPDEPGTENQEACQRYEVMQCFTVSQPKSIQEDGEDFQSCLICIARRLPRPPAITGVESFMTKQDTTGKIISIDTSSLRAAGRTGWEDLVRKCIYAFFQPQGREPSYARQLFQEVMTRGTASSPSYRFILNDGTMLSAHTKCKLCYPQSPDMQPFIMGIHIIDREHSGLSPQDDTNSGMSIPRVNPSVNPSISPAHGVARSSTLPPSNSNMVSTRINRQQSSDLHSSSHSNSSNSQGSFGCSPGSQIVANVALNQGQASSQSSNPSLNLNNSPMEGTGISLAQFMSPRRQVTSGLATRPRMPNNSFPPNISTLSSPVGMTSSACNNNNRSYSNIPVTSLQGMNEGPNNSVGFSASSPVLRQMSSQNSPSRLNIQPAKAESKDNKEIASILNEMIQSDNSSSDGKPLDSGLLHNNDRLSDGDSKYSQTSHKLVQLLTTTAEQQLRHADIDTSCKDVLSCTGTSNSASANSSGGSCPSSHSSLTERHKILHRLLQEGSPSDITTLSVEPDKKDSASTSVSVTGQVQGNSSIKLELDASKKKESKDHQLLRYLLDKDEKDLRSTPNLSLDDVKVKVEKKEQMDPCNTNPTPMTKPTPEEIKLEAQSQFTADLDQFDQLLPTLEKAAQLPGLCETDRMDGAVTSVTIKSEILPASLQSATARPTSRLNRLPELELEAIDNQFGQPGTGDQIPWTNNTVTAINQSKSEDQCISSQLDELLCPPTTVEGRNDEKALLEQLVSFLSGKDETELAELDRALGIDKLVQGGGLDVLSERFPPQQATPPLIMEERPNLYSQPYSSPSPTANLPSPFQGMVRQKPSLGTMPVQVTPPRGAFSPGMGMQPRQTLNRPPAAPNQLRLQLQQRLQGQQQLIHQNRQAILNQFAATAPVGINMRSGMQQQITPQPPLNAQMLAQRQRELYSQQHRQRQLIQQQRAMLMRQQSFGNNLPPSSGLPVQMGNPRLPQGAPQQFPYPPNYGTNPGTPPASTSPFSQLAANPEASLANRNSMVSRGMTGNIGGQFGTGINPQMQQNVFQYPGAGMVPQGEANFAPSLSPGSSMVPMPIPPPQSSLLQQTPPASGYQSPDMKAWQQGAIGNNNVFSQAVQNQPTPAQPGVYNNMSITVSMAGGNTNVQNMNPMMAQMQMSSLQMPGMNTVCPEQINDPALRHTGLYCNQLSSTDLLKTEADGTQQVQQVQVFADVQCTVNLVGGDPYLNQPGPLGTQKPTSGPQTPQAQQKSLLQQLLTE
Vasopressin V1a receptor, sequence (P37288 whole entry): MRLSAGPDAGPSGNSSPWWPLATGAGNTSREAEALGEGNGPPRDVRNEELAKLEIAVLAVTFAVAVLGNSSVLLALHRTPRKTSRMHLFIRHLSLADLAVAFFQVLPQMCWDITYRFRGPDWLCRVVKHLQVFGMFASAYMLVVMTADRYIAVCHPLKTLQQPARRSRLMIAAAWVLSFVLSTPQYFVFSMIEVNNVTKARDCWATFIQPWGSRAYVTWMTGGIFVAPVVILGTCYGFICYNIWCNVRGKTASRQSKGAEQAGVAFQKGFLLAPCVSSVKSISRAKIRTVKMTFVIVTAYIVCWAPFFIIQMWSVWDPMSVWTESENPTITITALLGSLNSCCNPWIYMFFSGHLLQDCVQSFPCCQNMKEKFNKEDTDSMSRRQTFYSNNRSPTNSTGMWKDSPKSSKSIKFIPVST

Structure (SMILES) | IC50 [1] | IC50 [2] | EC50 [8] | EC50 [9] | EC50 [10] | further results
CCN(CC)CC(O)COc1ccc2c(c1)c(C(C)=O)c(C)n2-c1ccccc1 (configuration not stated) | 6.95 µM (active) | 4.37 µM (active) | – | – | – | –
O=c1c2cc(Br)ccc2nc(-c2cccc(Cl)c2)n1O | – | – | – | – | – | EC50 [3]: 9.44 µM (active); EC50 [4]: 6.68 µM (active); EC50 [5]: > 9.97 µM (active); EC50 [6]: 2.86 µM (active); EC50 [7]: 1.13 µM (active)
COc1ccc(CCN(Cc2nc(O)c3ccccc3n2)C(=O)c2ccco2)cc1OC | – | – | > 79.4 µM (not active) | > 79.4 µM (not active) | > 79.4 µM (not active) | –
O=C(c1cc(-c2ccco2)on1)N1CCc2ccccc2C1 | – | – | – | – | – | IC50 [11]: 32.5 µM (not active); IC50 [12]: > 50 µM (not active)
COc1ccc(-c2cc(-c3cccs3)c(C#N)c(SCC(=O)NCc3ccccc3)n2)cc1 | – | – | 14.2 µM (not active) | 22.2 µM (not active) | 18.8 µM (not active) | –
CC(C)c1ccc(-c2nnn(Cc3nc4ccccc4s3)n2)cc1 | 4.61 µM (active) | 5.68 µM (active) | – | – | – | –
